Measured values: paper PMC4033217, “Characterization of Novel PI3Kδ Inhibitors as Potential Therapeutics for SLE and Lupus Nephritis in Pre-Clinical Studies” (Frontiers in Immunology, 2014)
Entries after “also recorded” stand apart in the source; their conditions may differ. Where two headings read alike, the source gives them in different places.

How the values were obtained:
B cell/PBMC co-culture = experiment: BioMAP B–T system (B cell/PBMC co-culture, anti-IgM and mild TCR stimulation); type: cell-based, human; conditions: 84 h
Method: Positively selected primary normal human CD19^+ B cells and CD4^+ T-cells were obtained from AllCells (Emeryville, CA, USA). PBMC were isolated from buffy coats (Stanford Blood Center, Stanford, CA, USA).
The levels of readout parameters were measured by ELISA ([14], [15]). Measurement values for each biomarker readout in a compound-treated sample were divided by the mean value from eight DMSO control samples (from the same plate) to generate a ratio. All ratios were then log10 transformed and plotted (BioMAP profile). Overt cytotoxicity of test compounds was assessed by total cell protein staining sulforhodamine B (Sigma-Aldrich, St. Louis, MO, USA) for adherent cells, or by cell viability staining Alamar Blue (Invitrogen, Carlsbad, CA, USA) for non-adherent cells.
This system models both T-cell-dependent B cell activation and class-switching as would occur in a germinal center, and B-cell-dependent T-cell responses, such as cytokine release ([13]).

[1] = In vivo pharmacokinetics in mouse; conditions: estimated
Caco-2 permeability = type: in vitro ADME; conditions: human
Source text: (§1) 36 CLint: intrinsic clearance in liver microsomes. h/m: human/mouse. Papp: apparent permeability. uPPB:
(§2) 37 unbound plasma protein binding. […]

[2] = tested on: CD69 on B220+ B cells, mouse whole blood; experiment: Anti-IgD-induced CD69 in mouse whole blood (in vitro); type: cell-based; conditions: B-cell
Method: Whole blood withdrawn from naïve C57BL/6N mice (Charles River Laboratories, L’Arbresle, France) were incubated with PI3Kδ inhibitors for 30 min and stimulated with 1/12 goat anti-mouse IgD antiserum (eBioscience, San Diego, CA, USA) for 4 h before staining with anti-B220-PerCP-Cy5.5 and anti-CD69-PE (all BD Biosciences Pharmingen, San Diego, CA, USA) for 30 min at room temperature. After red blood cells lysis, B220^+IgD^+ cells were gated for CD69 analysis.

PI3K δ [3] = experiment: Scintillation proximity assay, PI3Kδ enzymatic activity; type: biochemical, human
PI3K δ [4] = molecular target: PI3K δ (Homo sapiens, UniProt O00329); experiment: as above; type: biochemical; conditions: PI3K δ; 65 μM ATP; read-out: Enzymatic potency IC50
[5] = tested on: CD69 on CD19+ cells, PBMCs from SLE patients; experiment: Anti-IgM-induced CD69 up-regulation in PBMCs from SLE patients; type: cell-based; conditions: Homo sapiens, PBMC, 18 h, SLE patient PBMC, anti-IgM 18 h
Method: Heparinized human blood or buffy-coat prepared from healthy donors was obtained from the “Center de transfusion sanguine” of Geneva (Switzerland). Cryopreserved PBMCs from SLE patients were obtained from Asterand (Detroit, MI, USA). […] Studies were approved by Merck Serono ethics committee.
(A) Peripheral blood from healthy donors were collected in heparinized tubes and stimulated with anti-IgM for 5 min. Intracellular pAkt gated on CD19^+ cells were analyzed by flow cytometry. […] CD69 up-regulation on CD19^+ cells were analyzed by flow cytometry. Mean fluorescent intensity (MFI) from basal and stimulated conditions without inhibitor were used as 100% of activity. […]

Hck = Hck (Homo sapiens, UniProt P08631); experiment: Hck kinase inhibition; type: biochemical
[6] = tested on: CD69 on CD19+ B cells, human whole blood; experiment: Anti-IgM-induced CD69 in human whole blood; type: cell-based; conditions: B-cell, healthy donors, 18 h, read-out: IC50 anti-IgM-induced CD69 up-regulation
Source text: After red blood cells lysis, CD19^+ cells were gated for CD69 analysis.

PI3K β = PI3K β (Homo sapiens, UniProt P42338); experiment: Scintillation proximity assay, PI3Kβ enzymatic activity; type: biochemical; conditions: 65 μM ATP, read-out: Enzymatic potency IC50
[7] = Intrinsic clearance in mouse liver microsomes; type: in vitro ADME; conditions: read-out: In vitro Clint
Source text: as §1, §2

CD19+ B cells [8] = experiment: B cell proliferation assay (anti-IgM + IL-4, [3H]thymidine); type: cell-based, human; conditions: for IC50: anti-IgM and IL-4, 4 days
Method: CD19^+ B cells were isolated from PBMC of healthy volunteers by negative selection using the B cell purification kit II (Miltenyi Biotech, Bergisch Gladbach, Germany) and following manufacturer’s instructions. […] Proliferation was assessed by a multiplate beta counter (Perkin Elmer, Shelton, CT, USA).

PI3K α = PI3K α (Homo sapiens, UniProt P42336); experiment: Scintillation proximity assay, PI3Kα enzymatic activity; type: biochemical; conditions: 65 μM ATP, read-out: Enzymatic potency IC50
PI3K γ = PI3K γ (Homo sapiens, UniProt P48736); experiment: Scintillation proximity assay, PI3Kγ enzymatic activity; type: biochemical; conditions: 65 μM ATP, read-out: Enzymatic potency IC50
PAK3 = PAK3 (Homo sapiens, UniProt O75914); experiment: PAK3 kinase inhibition; type: biochemical
CD19+ B cells [9] = experiment: B cell cytokine release assay (anti-Ig, CpG ODN 2006, IFNα); type: cell-based; conditions: Homo sapiens, 48 h
Method: Cytokines in the supernatants were measured with Cytometric Bead Array kits (BD Biosciences Pharmingen, San Diego, CA, USA).

[10] = Unbound plasma protein binding, mouse; type: in vitro ADME; conditions: unbound fraction
Source text: as §1, §2

[11] = tested on: panel of 278 additional kinases; experiment: Kinase selectivity profile at 10 µM; type: biochemical; conditions: significant inhibition = >50%, ATP at Km
NZB/W F1 mice = experiment: IFNα-accelerated NZB/W F1 mouse SLE model; type: in vivo
Method: All protocols and procedures were conducted according to German animal protection law (Tierschutzgesetz) and were approved by the local veterinarian authorities (Regierungspräsidium, Darmstadt, Germany). Ten-week-old female NZB/W F1 mice (Jackson Laboratories, Bar Harbor, ME, USA) were given a single i.v. injection of 1 × 10^8 IU/100 μl of AdV-IFN-α (adenovirus with mmIfna5_v1 insert, Biofocus, CoA.NL.09.160) in saline or left untreated (sham). Drug treatments were either initiated at 2 weeks (early intervention regimen) or 4 weeks (late intervention regimen) post AdV-IFN-α delivery until the end of the experiment (at 10 weeks). […] Serum and urine samples were collected for anti-dsDNA antibodies (by ELISA) and urinary protein creatinine ratio (UPCR) (measured by ADVIA 1800) determination, respectively, on the days indicated. Proteinuria is defined as UPCR >3.

PI3K γ, sequence (P48736 whole entry): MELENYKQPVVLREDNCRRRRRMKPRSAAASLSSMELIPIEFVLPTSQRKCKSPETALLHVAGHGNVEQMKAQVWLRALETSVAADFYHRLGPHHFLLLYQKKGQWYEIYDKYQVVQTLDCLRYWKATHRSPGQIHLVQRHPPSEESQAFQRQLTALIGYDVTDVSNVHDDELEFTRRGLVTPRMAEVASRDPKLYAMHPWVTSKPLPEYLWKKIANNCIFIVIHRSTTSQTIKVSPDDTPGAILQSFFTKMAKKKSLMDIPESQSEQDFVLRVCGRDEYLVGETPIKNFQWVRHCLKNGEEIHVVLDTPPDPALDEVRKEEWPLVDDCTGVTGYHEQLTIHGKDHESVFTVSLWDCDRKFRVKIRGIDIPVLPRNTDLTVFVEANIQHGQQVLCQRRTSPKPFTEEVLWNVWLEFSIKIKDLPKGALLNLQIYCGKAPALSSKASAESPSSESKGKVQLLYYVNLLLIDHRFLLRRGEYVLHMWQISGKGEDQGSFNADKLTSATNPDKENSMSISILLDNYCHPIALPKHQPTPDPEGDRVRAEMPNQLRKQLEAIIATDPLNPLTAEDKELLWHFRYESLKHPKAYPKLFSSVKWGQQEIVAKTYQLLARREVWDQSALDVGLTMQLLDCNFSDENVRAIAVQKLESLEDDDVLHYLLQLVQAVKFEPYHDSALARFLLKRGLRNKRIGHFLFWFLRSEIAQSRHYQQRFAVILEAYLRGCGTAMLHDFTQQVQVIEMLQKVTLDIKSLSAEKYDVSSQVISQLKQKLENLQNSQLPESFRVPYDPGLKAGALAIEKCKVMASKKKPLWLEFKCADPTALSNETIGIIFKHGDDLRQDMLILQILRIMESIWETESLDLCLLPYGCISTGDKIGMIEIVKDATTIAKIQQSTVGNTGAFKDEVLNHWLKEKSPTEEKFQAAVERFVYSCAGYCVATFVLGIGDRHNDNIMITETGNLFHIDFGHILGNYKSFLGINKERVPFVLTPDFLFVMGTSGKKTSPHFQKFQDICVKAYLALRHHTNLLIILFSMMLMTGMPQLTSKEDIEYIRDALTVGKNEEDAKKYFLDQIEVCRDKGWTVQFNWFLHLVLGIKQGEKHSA
Hck, sequence (P08631 whole entry, species assumed): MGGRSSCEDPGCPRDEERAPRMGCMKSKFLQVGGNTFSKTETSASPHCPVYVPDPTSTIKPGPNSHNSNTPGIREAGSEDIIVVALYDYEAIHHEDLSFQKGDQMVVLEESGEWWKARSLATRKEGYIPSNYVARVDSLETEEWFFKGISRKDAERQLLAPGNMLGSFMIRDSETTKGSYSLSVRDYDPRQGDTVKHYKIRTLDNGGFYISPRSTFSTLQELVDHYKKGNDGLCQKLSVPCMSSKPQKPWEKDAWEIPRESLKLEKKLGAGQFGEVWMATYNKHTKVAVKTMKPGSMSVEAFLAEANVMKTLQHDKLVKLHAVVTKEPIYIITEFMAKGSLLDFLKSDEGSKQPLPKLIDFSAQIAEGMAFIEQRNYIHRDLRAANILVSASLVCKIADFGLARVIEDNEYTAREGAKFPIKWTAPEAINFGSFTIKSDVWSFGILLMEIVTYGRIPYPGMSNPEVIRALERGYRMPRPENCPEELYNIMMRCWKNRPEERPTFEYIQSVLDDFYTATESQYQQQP
PAK3, sequence (O75914 whole entry, species assumed): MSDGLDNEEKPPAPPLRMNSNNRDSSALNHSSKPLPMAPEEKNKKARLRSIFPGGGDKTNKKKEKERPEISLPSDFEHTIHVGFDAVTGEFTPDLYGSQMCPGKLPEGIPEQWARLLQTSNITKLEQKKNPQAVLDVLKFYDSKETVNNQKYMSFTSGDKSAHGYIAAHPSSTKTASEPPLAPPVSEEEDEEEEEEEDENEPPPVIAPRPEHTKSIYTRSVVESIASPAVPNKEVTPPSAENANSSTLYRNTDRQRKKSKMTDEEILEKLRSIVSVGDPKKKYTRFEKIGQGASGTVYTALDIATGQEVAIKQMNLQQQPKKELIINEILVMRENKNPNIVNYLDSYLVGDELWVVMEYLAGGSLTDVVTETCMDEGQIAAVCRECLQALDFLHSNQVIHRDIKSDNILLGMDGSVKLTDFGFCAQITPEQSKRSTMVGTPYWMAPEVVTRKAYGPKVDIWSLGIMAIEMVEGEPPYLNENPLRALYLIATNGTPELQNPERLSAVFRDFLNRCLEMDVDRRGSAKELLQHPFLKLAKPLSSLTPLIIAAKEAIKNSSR
PI3K δ (Homo sapiens, UniProt O00329), sequence (O00329 whole entry): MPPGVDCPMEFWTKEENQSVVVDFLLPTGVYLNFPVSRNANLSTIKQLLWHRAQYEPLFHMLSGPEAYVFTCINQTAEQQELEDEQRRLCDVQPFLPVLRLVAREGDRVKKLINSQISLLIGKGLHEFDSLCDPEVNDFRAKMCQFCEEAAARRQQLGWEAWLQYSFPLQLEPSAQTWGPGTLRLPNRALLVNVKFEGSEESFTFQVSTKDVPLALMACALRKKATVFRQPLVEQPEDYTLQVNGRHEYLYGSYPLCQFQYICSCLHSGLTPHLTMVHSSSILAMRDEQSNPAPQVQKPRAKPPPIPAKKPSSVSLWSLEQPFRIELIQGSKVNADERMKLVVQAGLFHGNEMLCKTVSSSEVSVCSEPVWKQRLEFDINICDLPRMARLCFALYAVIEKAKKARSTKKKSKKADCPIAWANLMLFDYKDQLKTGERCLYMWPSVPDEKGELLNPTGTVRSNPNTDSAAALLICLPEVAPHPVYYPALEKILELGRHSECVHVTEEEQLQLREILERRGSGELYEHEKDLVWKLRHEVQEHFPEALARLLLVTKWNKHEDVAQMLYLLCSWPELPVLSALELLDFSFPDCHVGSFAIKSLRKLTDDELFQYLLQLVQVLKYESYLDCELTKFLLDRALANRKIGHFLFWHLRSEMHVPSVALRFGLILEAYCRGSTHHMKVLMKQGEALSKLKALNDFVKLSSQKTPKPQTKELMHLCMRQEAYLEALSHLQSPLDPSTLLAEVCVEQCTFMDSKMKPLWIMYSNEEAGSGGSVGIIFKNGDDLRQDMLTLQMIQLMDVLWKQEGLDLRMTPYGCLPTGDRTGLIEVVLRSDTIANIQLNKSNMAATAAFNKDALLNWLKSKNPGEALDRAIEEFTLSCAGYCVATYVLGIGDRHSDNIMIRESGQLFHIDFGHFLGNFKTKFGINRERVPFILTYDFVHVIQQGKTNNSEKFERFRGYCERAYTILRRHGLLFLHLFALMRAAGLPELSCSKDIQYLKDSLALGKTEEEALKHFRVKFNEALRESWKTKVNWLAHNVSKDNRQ
PI3K α, sequence (P42336 whole entry): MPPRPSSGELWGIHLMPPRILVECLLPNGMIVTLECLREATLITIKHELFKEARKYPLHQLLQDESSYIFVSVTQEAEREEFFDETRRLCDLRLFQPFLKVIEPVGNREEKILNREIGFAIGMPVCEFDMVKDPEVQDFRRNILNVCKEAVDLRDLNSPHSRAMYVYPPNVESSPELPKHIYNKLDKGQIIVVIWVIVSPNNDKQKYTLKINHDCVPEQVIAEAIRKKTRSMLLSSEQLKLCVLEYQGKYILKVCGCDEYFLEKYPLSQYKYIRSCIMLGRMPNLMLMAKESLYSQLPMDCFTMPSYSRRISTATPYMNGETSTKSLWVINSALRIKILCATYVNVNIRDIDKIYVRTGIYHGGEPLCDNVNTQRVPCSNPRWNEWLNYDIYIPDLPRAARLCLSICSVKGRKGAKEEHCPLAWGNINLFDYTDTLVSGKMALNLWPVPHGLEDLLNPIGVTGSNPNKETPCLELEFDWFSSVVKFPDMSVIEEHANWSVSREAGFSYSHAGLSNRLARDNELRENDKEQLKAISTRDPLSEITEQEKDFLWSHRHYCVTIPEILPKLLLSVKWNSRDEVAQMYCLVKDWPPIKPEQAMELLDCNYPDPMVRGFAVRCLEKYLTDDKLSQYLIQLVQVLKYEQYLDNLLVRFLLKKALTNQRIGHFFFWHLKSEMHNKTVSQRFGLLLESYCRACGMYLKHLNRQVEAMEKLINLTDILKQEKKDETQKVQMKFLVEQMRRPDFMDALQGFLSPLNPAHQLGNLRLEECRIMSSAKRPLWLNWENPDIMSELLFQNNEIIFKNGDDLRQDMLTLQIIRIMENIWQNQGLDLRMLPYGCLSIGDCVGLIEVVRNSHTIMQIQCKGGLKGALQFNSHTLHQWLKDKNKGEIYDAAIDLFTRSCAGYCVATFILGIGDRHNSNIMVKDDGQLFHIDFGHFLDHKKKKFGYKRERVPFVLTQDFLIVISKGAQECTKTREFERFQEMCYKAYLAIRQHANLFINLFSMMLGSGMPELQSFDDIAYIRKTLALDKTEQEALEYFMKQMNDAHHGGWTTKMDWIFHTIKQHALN
PI3K α, sequence (P27986 whole entry partner): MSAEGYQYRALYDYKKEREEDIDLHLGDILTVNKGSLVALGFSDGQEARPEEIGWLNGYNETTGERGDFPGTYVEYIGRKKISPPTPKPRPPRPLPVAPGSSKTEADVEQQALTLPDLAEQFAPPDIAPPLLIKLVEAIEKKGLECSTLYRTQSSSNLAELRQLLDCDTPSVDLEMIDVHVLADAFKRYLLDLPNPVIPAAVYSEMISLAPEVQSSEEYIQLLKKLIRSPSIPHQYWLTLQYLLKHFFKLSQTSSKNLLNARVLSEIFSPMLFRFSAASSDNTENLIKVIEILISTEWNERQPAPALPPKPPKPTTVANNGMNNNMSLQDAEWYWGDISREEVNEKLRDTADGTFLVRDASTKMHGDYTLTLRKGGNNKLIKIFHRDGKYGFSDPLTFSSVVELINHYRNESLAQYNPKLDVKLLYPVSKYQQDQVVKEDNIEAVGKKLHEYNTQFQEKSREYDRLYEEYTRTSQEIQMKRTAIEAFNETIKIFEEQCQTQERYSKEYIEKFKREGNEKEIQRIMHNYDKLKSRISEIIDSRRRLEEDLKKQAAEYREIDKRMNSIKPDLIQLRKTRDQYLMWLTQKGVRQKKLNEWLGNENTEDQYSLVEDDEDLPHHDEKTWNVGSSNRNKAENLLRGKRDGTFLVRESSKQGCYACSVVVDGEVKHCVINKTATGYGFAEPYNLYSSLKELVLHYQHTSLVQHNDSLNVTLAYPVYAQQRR

Structure (SMILES): O=C(c1nn([C@@H]2CCCN(CCN3CCOCC3)C2)c2c1CS(=O)(=O)c1cc(F)ccc1-2)N1CCOCC1 [MSC2364588, (R)-7-fluoro-3-(morpholin-4-ylcarbonyl)-1-[1-(2-morpholin-4-ylethyl)piperidin-3-yl]-1,4-dihydrothiochro-meno[4,3-c]pyrazole 5,5-dioxide]
- B cell proliferation and IgG secretion, IL-17A, IL-2 and TNFα release (B cell/PBMC co-culture): significantly and dose-dependently inhibited
- IL-6 levels (B cell/PBMC co-culture): no effect
- CL/F ([1]; C57BL/6N, plasma, po): 418 mL/min/kg
- half-life ([1]; C57BL/6N, plasma, po): 36 min
- Ka [1]: 1.6 h⁻¹
- V/F [1]: 5.8 L/kg
- Papp (Caco-2 permeability): 2.4 ×10⁻⁶ cm/s
- efflux ratio (Caco-2 permeability): 1.6
- IC50 ([2]; average, read-out: average IC50 for CD69): 16 nM
- IC50 ([2]; representative experiment of Figure 5B, read-out: IC50 CD69): 18 nM
- Potency relative to MSC2360844 (PI3K δ [3]; all assays, cell types and in vitro enzymatic activity): 5–10 times
- Potency relative to MSC2360844 (PI3K δ [3]; enzymatic and cellular contexts): 10 fold
- IC50 (PI3K δ [4]): 15 nM
- IC50 ([5]; another donor (Figure 4C, right)): 12 nM
- IC50 ([5]; one donor (Figure 4C, left)): 9 nM
- IC50 (Hck): > 10000 nM
- IC50 [6]: 21 nM
- IC50 (PI3K β): 2450 nM
- microsomal CLint [7]: 35 µL/min/mg
- Potency relative to MSC2360844 (CD19+ B cells [8]; B cell function): 10 times
- IC50 (CD19+ B cells [8]; Homo sapiens, B-cell, 96 h): 7 nM
- IC50 (CD19+ B cells [8]): 6 nM
- IC50 (PI3K α): 7650 nM
- IC50 (PI3K γ): > 20000 nM
- IC50 (PAK3): > 10000 nM
- IC50 (CD19+ B cells [9]; read-out: IC50 IL-6): 9 nM
- IC50 (CD19+ B cells [9]; read-out: IC50 IL-10): 10 nM
- IC50 (CD19+ B cells [9]; read-out: IC50 TNF-α): 18 nM
- uPPB % [10]: 65%
- Inhibition of kinases in the panel [11]: impaired Hck and PAK3 activity
- Proteinuria progression / disease severity (NZB/W F1 mice; half daily dose given twice daily, early intervention): reduces disease severity; also recorded: Equivalent results
- Drug-related body weight loss (NZB/W F1 mice; throughout the studies, data not shown): no drug-related body weight loss
